Results from patent US20240327382A1 (ALMAC DISCOVERY LIMITED, priority 2021, published 2024).

What follows are molecules tested against T1, Full-length USP19 (Homo sapiens, UniProt O94966) (assay: USP19 fluorescence polarisation (FP) assay, Ubiquitin-Lys-TAMRA substrate). Details: average of at least two duplicate experiments.
T1 construct: Full-length USP19 was purchased from Boston Biochem (E-576); purchased Boston Biochem E-576
T1 sequence (O94966 1-1318): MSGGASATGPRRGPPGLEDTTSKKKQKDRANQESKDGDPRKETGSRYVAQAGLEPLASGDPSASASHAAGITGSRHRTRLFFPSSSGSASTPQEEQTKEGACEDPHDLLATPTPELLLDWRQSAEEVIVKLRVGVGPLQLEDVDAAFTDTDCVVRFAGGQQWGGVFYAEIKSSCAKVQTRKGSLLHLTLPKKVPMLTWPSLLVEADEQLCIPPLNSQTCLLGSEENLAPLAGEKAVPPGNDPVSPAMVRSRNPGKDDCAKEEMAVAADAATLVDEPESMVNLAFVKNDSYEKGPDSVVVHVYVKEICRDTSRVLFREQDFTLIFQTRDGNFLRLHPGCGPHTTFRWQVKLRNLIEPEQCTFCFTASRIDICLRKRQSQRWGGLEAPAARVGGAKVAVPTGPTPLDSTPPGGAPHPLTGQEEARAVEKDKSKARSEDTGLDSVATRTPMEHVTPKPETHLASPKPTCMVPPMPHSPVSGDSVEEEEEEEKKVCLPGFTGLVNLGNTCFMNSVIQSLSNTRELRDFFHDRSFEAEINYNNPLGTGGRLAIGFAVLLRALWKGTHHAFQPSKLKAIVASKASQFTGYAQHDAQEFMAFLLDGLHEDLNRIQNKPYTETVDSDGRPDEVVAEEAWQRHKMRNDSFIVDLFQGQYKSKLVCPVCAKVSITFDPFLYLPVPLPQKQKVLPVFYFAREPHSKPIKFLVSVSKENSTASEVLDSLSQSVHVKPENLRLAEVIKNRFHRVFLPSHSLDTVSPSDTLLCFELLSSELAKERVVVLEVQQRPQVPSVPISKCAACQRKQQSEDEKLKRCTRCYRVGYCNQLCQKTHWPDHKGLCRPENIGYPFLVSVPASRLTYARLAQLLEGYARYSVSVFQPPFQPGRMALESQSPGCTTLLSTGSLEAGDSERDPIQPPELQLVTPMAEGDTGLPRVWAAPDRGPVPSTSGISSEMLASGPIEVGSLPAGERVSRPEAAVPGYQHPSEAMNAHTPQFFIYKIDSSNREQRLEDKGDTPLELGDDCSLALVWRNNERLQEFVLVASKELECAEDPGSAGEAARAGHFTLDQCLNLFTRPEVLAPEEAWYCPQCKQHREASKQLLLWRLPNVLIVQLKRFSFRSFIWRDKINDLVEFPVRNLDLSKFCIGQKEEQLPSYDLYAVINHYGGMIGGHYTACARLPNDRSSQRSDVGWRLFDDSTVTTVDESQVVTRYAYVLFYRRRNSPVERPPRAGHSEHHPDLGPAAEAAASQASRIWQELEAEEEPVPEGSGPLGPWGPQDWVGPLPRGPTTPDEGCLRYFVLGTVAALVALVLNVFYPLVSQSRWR
Assay type: biochemical
Outline: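 Full-length human USP19 (added at 2.5 nM) was preincubated 30 min at RT with inhibitor (serial dilutions 200 μM to 2 μM) in 50 mM HEPES pH 7.4, 150 mM NaCl, 5 mM DTT, 0.05% BSA, 0.05% CHAPS. Ubiquitin-Lys-TAMRA isopeptide substrate (added at 500 nM) started the reaction, and FP (Ex 530/Em 575 nm) was read every 15 min over 90 min. IC50 came from non-linear regression of signal normalised to no-compound control, averaged over at least two duplicate experiments.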

`COc1ccccc1-c1cc(=O)n(C[C@@H]2CCN(C(=O)N3CCNC[C@H]3c3cccc(F)c3)CC23CCCC3)cn1` [Example 115, 3-(((R)-7-((R)-2-(3-Fluorophenyl)piperazine-1-carbonyl)-7-azaspiro[4.5]decan-10-yl)methyl)-6-(2-methoxyphenyl)pyrimidin-4(3H)-one] was tested. Which IC50 did it give?
Its IC50 is less than 0.01 µM.

For `C[C@@]1(O)CCN(C(=O)N2CC[C@@H](Cn3ccc(-c4ccccc4)cc3=O)C3(CCCC3)C2)[C@H](c2ccccc2)C1` [Example 52, 1-(((R)-7-((2S,4R)-4-Hydroxy-4-methyl-2-phenylpiperidine-1-carbonyl)-7-azaspiro[4.5]decan-10-yl)methyl)-4-phenylpyridin-2(1H)-one], which IC50 is on record?
The IC50 was 0.1 to 1 µM.

How did the IC50 turn out when `O=C(N1CC[C@@H](Cn2cnc(C(F)F)cc2=O)C2(CCCC2)C1)N1CC[C@@H](NC2CC(F)(F)C2)C[C@H]1c1cc(F)ccc1F` [Example 183, 3-(((R)-7-((2S,4R)-4-((3,3-Difluorocyclobutyl)amino)-2-(2,5-difluorophenyl)piperidine-1-carbonyl)-7-azaspiro[4.5]decan-10-yl)methyl)-6-(difluoromethyl)pyrimidin-4(3H)-one] was run?
The IC50 was 0.01 to 0.1 µM.

With `CN[C@@H]1CCN(C(=O)N2CC[C@@H](Cn3ccc(-c4ccccc4C)cc3=O)C3(CCCC3)C2)[C@H](c2ccccc2)C1` [Example 54, 1-(((R)-7-((2S,4R)-4-(Methylamino)-2-phenylpiperidine-1-carbonyl)-7-azaspiro[4.5]decan-10-yl)methyl)-4-(o-tolyl)pyridin-2(1H)-one] as the molecule, how does the IC50 read?
Its IC50 is less than 0.01 µM.

With `COc1ccccc1-c1cc(=O)n(C[C@@H]2CCN(C(=O)N3CC[C@@H](N4CCOCC4)C[C@H]3c3ccccc3)CC23CCCC3)cn1` [Example 110, 6-(2-Methoxyphenyl)-3-(((R)-7-((2S,4R)-4-morpholino-2-phenylpiperidine-1-carbonyl)-7-azaspiro[4.5]decan-10-yl)methyl)pyrimidin-4(3H)-one] as the molecule, how does the IC50 read?
The IC50 was 0.01 to 0.1 µM.

For `Cc1cc(C)nc(CN[C@@H]2CCN(C(=O)N3CC[C@@H](Cn4cnc(-c5ccccc5)cc4=O)C4(CCCC4)C3)[C@H](c3ccccc3)C2)n1` [Example 194, 3-(((R)-7-((2S,4R)-4-(((4,6-Dimethylpyrimidin-2-yl)methyl)amino)-2-phenylpiperidine-1-carbonyl)-7-azaspiro[4.5]decan-10-yl)methyl)-6-phenylpyrimidin-4(3H)-one], which IC50 is on record?
The IC50 was less than 0.01 µM.

`N[C@@H]1CCN(C(=O)N2CC[C@@H](Cn3cnc4ccc(F)cc4c3=O)C3(CCCC3)C2)[C@H](c2ccccc2)C1` [Example 100, 3-(((R)-7-((2S,4R)-4-Amino-2-phenylpiperidine-1-carbonyl)-7-azaspiro[4.5]decan-10-yl)methyl)-6-fluoroquinazolin-4(3H)-one] was tested. Which IC50 did it give?
The IC50 was less than 0.01 µM.

With `CN[C@@H]1CCN(C(=O)N2CC[C@@H](Cn3cnc(-c4ccccc4C)cc3=O)C3(CCCC3)C2)[C@H](c2cccc(F)c2)C1` [Example 119, 3-(((R)-7-((2S,4R)-2-(3-Fluorophenyl)-4-(methylamino)piperidine-1-carbonyl)-7-azaspiro[4.5]decan-10-yl)methyl)-6-(0-tolyl)pyrimidin-4(3H)-one] as the molecule, how does the IC50 read?
Its IC50 is less than 0.01 µM.

Which IC50 does the source give for `COc1ccccc1-c1cc(=O)n(C[C@]2(OC)CCN(C(=O)N3CCNC[C@H]3c3cc(F)ccc3F)CC23CCCC3)cn1` [Example 187, 3-(((S)-7-((R)-2-(2,5-Difluorophenyl)piperazine-1-carbonyl)-10-methoxy-7-azaspiro[4.5]decan-10-yl)methyl)-6-(2-methoxyphenyl)pyrimidin-4(3H)-one] here?
The IC50 was less than 0.01 µM.

With `Cc1ccccc1-c1ccn(C[C@@H]2CCN(C(=O)N3CC[C@@H](N)C[C@H]3c3ccccc3)CC23CCCC3)c(=O)c1` [Example 60, 1-(((R)-7-((2S,4R)-4-Amino-2-phenylpiperidine-1-carbonyl)-7-azaspiro[4.5]decan-10-yl)methyl)-4-(o-tolyl)pyridin-2(1H)-one] as the molecule, how does the IC50 read?
The IC50 was less than 0.01 µM.

Which IC50 does the source give for `N[C@@H]1CC[C@@H](c2ccccc2)N(C(=O)N2CC[C@@H](Cn3cnc(-c4ccccc4)cc3=O)C3(CCCC3)C2)C1` (racemic) [Example 188, 3-(((R)-7-((2S,5R)-5-Amino-2-phenylpiperidine-1-carbonyl)-7-azaspiro[4.5]decan-10-yl)methyl)-6-phenylpyrimidin-4(3H)-one and 3-(((R)-7-((2R,5S)-5-amino-2-phenylpiperidine-1-carbonyl)-7-azaspiro[4.5]decan-10-yl)methyl)-6-phenylpyrimidin-4(3H)-one] here?
The IC50 was 0.01 to 0.1 µM.

Which IC50 does the source give for `CCN[C@@H]1CCN(C(=O)N2CC[C@@H](Cn3ccc(-c4ccccc4)cc3=O)C3(CCCC3)C2)[C@H](c2ccccc2)C1` [Example 45, 1-(((R)-7-((2S,4R)-4-(Ethylamino)-2-phenylpiperidine-1-carbonyl)-7-azaspiro[4.5]decan-10-yl)methyl)-4-phenylpyridin-2(1H)-one] here?
The IC50 was less than 0.01 µM.

Which IC50 does the source give for `O=C(N1CC[C@@H](Cn2cnc(-c3ccccc3)cc2=O)C2(CCCC2)C1)N1CC[C@@H](NCC(F)F)C[C@H]1c1ccccc1` [Example 71, 3-(((R)-7-((2S,4R)-4-((2,2-Difluoroethyl)amino)-2-phenylpiperidine-1-carbonyl)-7-azaspiro[4.5]decan-10-yl)methyl)-6-phenylpyrimidin-4(3H)-one] here?
Its IC50 is less than 0.01 µM.

Which IC50 does the source give for `O=C(N1CCC(Cn2ccc(-c3ccccc3)cc2=O)CC1)N1CCNC[C@H]1c1cc(F)ccc1F` [Example 22, (R)-1-((1-(2-(2,5-Difluorophenyl)piperazine-1-carbonyl)piperidin-4-yl)methyl)-4-phenylpyridin-2(1H)-one] here?
The IC50 was 0.01 to 0.1 µM.

With `COC(=O)CN[C@@H]1CCN(C(=O)N2CC[C@@H](Cn3cnc(-c4ccccc4)cc3=O)C3(CCCC3)C2)[C@H](c2ccccc2)C1` [Example 105, Methyl ((2S,4R)-1-((R)-10-((6-oxo-4-phenylpyrimidin-1(6H)-yl)methyl)-7-azaspiro[4.5]decane-7-carbonyl)-2-phenylpiperidin-4-yl)glycinate] as the molecule, how does the IC50 read?
The IC50 was less than 0.01 µM.

For `N[C@@H]1CCN(C(=O)N2CCC(Cn3ccc(-c4ccccc4)cc3=O)CC2)[C@H](c2ccccc2)C1` [Example 17, 1-((1-((2S,4R)-4-Amino-2-phenylpiperidine-1-carbonyl)piperidin-4-yl)methyl)-4-phenylpyridin-2(1H)-one], which IC50 is on record?
The IC50 was 0.01 to 0.1 µM.

With `O=C(N1CC[C@@H](Cn2cnc(C3CC3)cc2=O)C2(CCCC2)C1)N1CC[C@@H](NCC(F)F)C[C@H]1c1cc(F)ccc1F` [Example 182, 6-Cyclopropyl-3-(((R)-7-((2S,4R)-4-((2,2-difluoroethyl)amino)-2-(2,5-difluorophenyl)piperidine-1-carbonyl)-7-azaspiro[4.5]decan-10-yl)methyl)pyrimidin-4(3H)-one] as the molecule, how does the IC50 read?
Its IC50 is 0.01 to 0.1 µM.

`CC1(C)CN(C(=O)N2CC[C@@H](N)C[C@H]2c2ccccc2)CCC1Cn1cnc(-c2ccccc2)cc1=O` (stereo partly drawn) [Example 19, 3-((1-((2S,4R)-4-Amino-2-phenylpiperidine-1-carbonyl)-3,3-dimethylpiperidin-4-yl)methyl)-6-phenylpyrimidin-4(3H)-one] was tested. Which IC50 did it give?
Its IC50 is less than 0.01 µM.

For `CN[C@@H]1CCN(C(=O)N2CC[C@@H](Cn3cnc(-c4ccccc4OC)cc3=O)C3(CCCC3)C2)[C@H](c2ccc(F)c(F)c2)C1` [Example 138, 3-(((R)-7-((2S,4R)-2-(3,4-Difluorophenyl)-4-(methylamino)piperidine-1-carbonyl)-7-azaspiro[4.5]decan-10-yl)methyl)-6-(2-methoxyphenyl)pyrimidin-4(3H)-one], which IC50 is on record?
The IC50 was less than 0.01 µM.
